Reference: patent US20090209503A1, “COLONIC DELIVERY THERAPEUTIC AGENTS FOR INFLAMMATORY BOWEL DISEASE” (AJINOMOTO CO. INC., priority 2005, published 2009)
Several values for one entry are separate records, joined by “and”; a condition that tells them apart may be missing. Equal entries are not always repeated.

Key:
[1] = tested on: patients with ulcerative colitis; assay: Example 1: 2 g L-glutamine enema, frequencies of bowel movements and diarrhea, blood feces scores; type: in vivo, humans; design: key to Blood feces score, Aft. admin.: blood feces score averaged per day: 0 = none, 1 = less, 3 = a lot
Protocol: Further, 60 mL of an enema agent prepared by adding 2 g of L-glutamine to sterilized water was administered via the large intestinal route to the patients with ulcerative colitis having the same symptoms as mentioned above (Case Nos. 5 and 9 to 14).
In addition, the patients with ulcerative colitis of Comparative Example and Example take a 5-ASA agent(s) (“Pentasas” or “Salazopyrin®”) as an oral agent conforming to dosage and administration.
The frequencies of bowel movements and diarrhea, and blood feces scores were measured of these patients.

[2] = tested on: DSS model in mice (ulcerative colitis developed by 5% DSS water); assay: Drug efficacy test by enema administration of glutamine on DSS model in mice; type: in vivo, mouse; details: sixth day after start of drinking DSS water, FIG. 1
Protocol: 5% DSS water (dissolving dextran sulfate sodium in tap water) was drank ad lib by a male C57BL/6 Cr Slc mouse of 8 weeks old, and it developed ulcerative colitis. From one day before starting drinking of DSS water, L-glutamine was administered via the large intestinal route to the mouse once a day. An enema agent (solution) having the composition of 0.5% (w/v) carboxymethylcellulose—sodium was used as the enema agent. As the disease activity index, each average value of body weight scores, blood feces scores and diarrhea scores was calculated referring to the report of HS. Cooper et al. (Laboratory Investigation 1993; 69(2): 238).

[3] = tested on: rat models of TNBS; details: 0.25 to 0.4 g/kg via the large intestinal route; Non-patent Literatures 13 and 14; cited from earlier work
[4] = tested on: patients with ulcerative colitis; assay: Comparative Example 1: 10 g L-glutamine via the large intestinal route, frequencies of bowel movements and diarrhea; type: in vivo, humans
Protocol: 10 g of L-glutamine was added to 60 mL of “Predonema®” Enema, and the mixture was administered via the large intestinal route to patients with ulcerative colitis. The frequencies of bowel movements and diarrhea were measured. […] Meanwhile, the patients were treated with “Predonema®” from Day 1 to Day 14, and 60 mL of “Predonema®” Enema prepared by adding 10 g of L-glutamine thereto was administered via the large intestinal route to the patients from Day 15 to Day 28.

[5] = tested on: epithelial injuries in the upper digestive tracts such as the stomach and the duodenum; details: dose of about 2 g a day; Non-patent Literatures 8 and 9; cited from earlier work
[6] = 2 g L-glutamine enema, with or without Predonema
[7] = 2 g L-glutamine enema, oral 5-ASA agent

In the case of `NC(=O)CC[C@H](N)C(=O)O` [Gln, L-glutamine], the “frequency of bowel movements (summary of Table 1)” value [1, 6] is reported as “maintained the frequency of bowel movements”, the “improvement in blood feces (summary of Table 1)” value [1, 6] is reported as “improvement in blood feces was recognized in all cases” and the “diarrhea (summary of Table 1)” value ([1]; 2 g L-glutamine enema, as shown in Case Nos. 4 and 5) is reported as “able to improve diarrhea”. The “cases in which the blood feces improved” value [1, 7] was 3 out of 7, the “improvement rate (blood feces)” value [1, 7] was 43% and the “Blood feces score, Aft. admin.” value ([1]; 2 g L-glutamine in 60 mL enema, admin. period 14-39 per case, oral 5-ASA agent, single patient, average per day, no blood feces: 0, less: 1, a lot: 3) was 1.3 and 1.0 (2×) and 0.8 and 0.9. For the same molecule, the “Freq. of bowel movement, Aft. admin.” value ([1]; 2 g L-glutamine in 60 mL enema, large intestinal route, admin. period 14-39 per case, all with oral 5-ASA agent, single patient) was 5.0 per a day and 5.3 per a day and 2.3 per a day and 13.9 per a day and 14.1 per a day, the “freq. of diarrhea, Aft. admin.” value ([1]; 2 g L-glutamine in 60 mL enema, large intestinal route, admin. period 14-39 per case, all with oral 5-ASA agent, single patient, number in ( )) was 0.1 per a day and 0.4 per a day and 0.0 per a day (2×) and 2.6 per a day and the “course of administration (stopped for aggravation of symptoms after starting administration)” value ([1]; 2 g L-glutamine in 60 mL sterilized water enema, oral 5-ASA agent, single patient) was “Stopped for aggravation”. The “Freq. of bowel movement, Bef. admin.” value ([1]; baseline before administration, single patient (Case No.), average value per day of the period) was 4.5 per a day and 5.4 per a day and 2.5 per a day and 4.2 per a day and 6.7 per a day, the “freq. of diarrhea, Bef. admin.” value ([1]; baseline before administration, single patient (Case No.), number in ( )) was 2.0 per a day and 0.9 per a day and 0.0 per a day (2×) and 1.5 per a day and the “Blood feces score, Bef. admin.” value ([1]; baseline before administration, single patient, average per day, no blood feces: 0, less: 1, a lot: 3) was 2.2 and 1.3 (2×) and 0.8 and 1.0. For the same molecule, the “disease activity index (average of body weight, blood feces and diarrhea scores) versus vehicle-treated group” value ([2]; 30 mg/kg once a day via the large intestinal route) was “no significant difference”, the “disease activity index (average of body weight, blood feces and diarrhea scores) versus vehicle-treated group” value ([2]; 100 mg/kg once a day via the large intestinal route) was “no significant difference” and the “effectiveness in animal enteritis models” value [3] was “effective”. For the same molecule, the “frequency of bowel movements” value ([4]; 10 g L-glutamine added to 60 mL Predonema Enema, Day 15 to Day 28, after Predonema alone Day 1 to Day 14, oral 5-ASA agent, FIG. 2) was “increased”, the “blood feces (observation of feces)” value ([4]; 10 g L-glutamine added to 60 mL Predonema Enema, Day 15 to Day 28, oral 5-ASA agent) was “improving effect of blood feces was recognized” and the “frequency of bowel movements” value ([4]; 10 g of L-glutamine via the large intestinal route to humans) was “frequency of bowel movements increases”. The “effectiveness against epithelial injuries in the upper digestive tracts” value [5] was “effective”.
